Here are results for 17 compounds from patent publication US4096112A, “2-Phenyl-indole derivative stabilizers for PVC resins” (Labaz, priority 1976, dated 1978).

By LD50 is commonly meant the dose at which mortality reaches 50%. Lower therefore signals a more toxic substance.

For series [1], the system named is mice. Put plainly: Maximal dose which does not provoke any death (LD0), oral route, mice. In kind it is in vivo. The settings on record: for Toxic symptoms: LD0 test. The method, then: (§1) A gummy suspension of the substance under study was administered by oral route to groups of at least ten mice and the following results were observed: […]
Series [2] is described as follows: Static thermostability of the stabilized resin, simplified method (GARDNER sub-scale in polyvinyl chloride sheets). On the procedure:
(§2) These studies were performed with five different formulae of vinyl resins (hereinafter referred to as Compounds).
(§3) The different Compounds were mixed and calendered in a mixer of which the cylinders were heated to 160° C. The rigid sheets so obtained were then heated in an oven to a temperature between 180° C and 215° C, until incipient carbonization.
(§4) A stove with rotating drums, ventilated and equipped with a thermostat was used for this operation. In the trials described hereunder, the behaviour of the sheets containing one of the stabilizers to be tested was compared to that of sheets of the same formulae but containing 2-phenylindole as stabilizer.
(2) It is also possible to use a simplified method which is more rapid and with which valid results are also obtained: A reference scale is drawn up with sheets of thermally treated polyvinyl chloride, of which the colorations have been definitely determined in GARDNER degrees as above.
A GARDNER sub-scale is thus obtained in polyvinyl chloride sheets which can be directly compared to the sheets to be tested without using the comparator.

For series [3], the system named is mice. Put plainly: Acute toxicity (LD50), oral route, mice. The class given is in vivo. The settings on record: LD50 test. The method, then: (§5) The acute toxicity (LD50) of the stabilizers listed below was carried out, by determining the dose of substance which provoked the death of 50% of the treated animals.
as §1

A short description of series [4]: Acute toxicity (LD50), oral route, mice. The class given is in vivo. The settings on record: mouse, in vivo, gummy suspension. The method, then: as §5, §1
Series [5] is described as follows: Thermostability of the stabilizers: differential thermoanalysis. The class given is physicochemical. The note with it: 2° C/minute, 2 mg. On the procedure: (§6) The thermostability of Stabilizer 2 and that of 2-phenyl-indole were studied by differential thermoanalysis and by thermogravimetric analysis.
Differential thermoanalysis diagrams were drawn up by studying 2 mg samples of material placed in a non-airtight container, the rate of temperature increase being 2° C/minute and sensitivity 4 mcal/sec.
The diagrams were made out for 2-phenyl-indole (i) and Compound 2 (ii) and enabled the following conclusions to be drawn: […]

Series [6] can be described thus: Thermostability of the stabilizers: thermogravimetric analysis. In kind it is physicochemical. On the procedure: as §6
This analysis necessitated two series of trials carried out under air and under inert gas (argon) in order to eliminate any possible effect of oxygen. The results obtained were identical.
The temperature increase rate was 80° /hour.
Thermograms were drawn up under air for both 2-phenyl-indole (i) and for Stabilizer 2 (ii) and enabled the following conclusions to be drawn: […]

Series [7] is described as follows: Sublimation of the stabilizers. The settings on record: 120° C, 15 Torr, 150 minutes; for Percentage of sublimated substance: cold wall 13° C, 150 mg. The class given is physicochemical. The source says:
The tendency to sublimate of 2-(3'-methoxy-4'-hydroxy-phenyl)-indole (Stabilizer 2) was compared to that of 2-phenyl-indole.
A sample of the substance to be tested was introduced into a test tube and heated under reduced pressure. The fraction of sublimated substance was recovered on a mobile cold wall.
After a certain period of time, the sublimated substance was weighed and the result expressed as a percentage of the weight of the starting material.
The results obtained can only be of relative value enabling a comparison to be made between two products tested under the same conditions.
Operating conditions (chosen at random)

The format of series [8] is physicochemical. The settings on record: water; for Extractibility compared with 2-phenyl-indole: aqueous ethanol and heptane. The method, then: The stabilizers according to the invention may be used to stabilize polymers which are intended for the manufacture of packaging and containers for food and drink and it was therefore necessary, in spite of their low toxicity, to determine their extractibility by solvents simulating food and drink. This study was carried out in accordance with the requirements of the Food and Drug Administration (U.S.A). The extractions were performed in semi-rigid bottles, prepared with Compounds Nos. 609 and 676, and with the following solvents: water, an aqueous solution of acetic acid (3%), ethanol-water 50/50, heptane. The ratio of the volume of solvent to the surface of plastic material exposed to extraction was about 1 to 100 ml of solvent, taking into account the geometric characteristics of the bottles. Temperature: 49° C Heating: A thermostated oven for the non-inflammable solvents (water and acetic acid) A thermostated water-bath for the inflammable solvents (alcohol and heptane) Duration of extraction: This is indicated under each result. They are, in each case, intentionally longer than those which would have given stable maximum values. The quantity of stabilizer extracted was determined by colorimetric assay using p-dimethylaminobenzaldehyde, in accordance with the method described in Analytical Chemistry 36, 425-26 (1964). A blank trial was carried out with a Compound of the same formula as Compounds Nos. 609 and 676, but without any stabilizer. A purely negative result was obtained. The amounts of stabilizer assayed are expressed in μg per liter of extraction solvent or, which is the same per 1000 cm^2 of surface submitted to extraction.

Series [9] can be described thus: Static thermostability of the stabilized resin, GARDNER Scale comparator. The note with it: 210° C. The method, then: as §2, §3, §4
(1) The coloration of the sheets, of which samples were removed from the stove at fixed intervals, was compared to a standard scale of coloration, known as the GARDNER Scale and expressed in terms of the reference figures of the GARDNER Scale.
Comparisons were made with a GARDNER Scale comparator which contains 18 filters of coloured glass and which offers the possibility of observing by transparency and in a limited field of view both the sheet and the reference filters.

Some results are limits rather than exact numbers.

With `c1ccc2[nH]c(-c3ccc4c(c3)OCO4)cc2c1` [Stabilizer 33, 2-(3',4'-methylenedioxy-phenyl)-indole], in the series with mice [1], the “LD0 (maximal dose which does not provoke any death)” value is reported as > 3000 mg/kg and the Toxic symptoms result is reported as “none”.

As to `COc1ccc(-c2cc3ccccc3[nH]2)cc1OCc1ccccc1` [Stabilizer 29, 2-(3'-benzyloxy-4'-methoxy-phenyl)indole], in the series with mice [1], the “LD0 (maximal dose which does not provoke any death)” value is recorded as > 500 mg/kg and the Toxic symptoms entry was “none”.

Turning to `COc1cc(OC)cc(-c2cc3ccccc3[nH]2)c1` [Stabilizer 3, 2-(3',5'-dimethyoxy-phenyl)-indole], the “Static thermostability compared with 2-phenyl-indole” value in series [2] (Compound A, 210° C) was “markedly superior to 2-phenyl-indole”. For the same compound, in the series on mice [3], the Toxic symptoms result is recorded as “none”. For the same compound, the LD50 in [4] was > 2000 mg/kg.

Turning to `CCOc1ccc(-c2cc3ccccc3[nH]2)cc1OC` [Stabilizer 23, 2-(3'-methoxy-4'-ethoxy-phenyl)-indole], in the series with mice [1], the “LD0 (maximal dose which does not provoke any death)” value is > 500 mg/kg and the Toxic symptoms result was “none”.

For the compound `COc1ccc(-c2cc3ccccc3[nH]2)cc1O` [Stabilizer 13, 2-(3'-hydroxy-4'-methoxy-phenyl)-indole], the “Static thermostability compared with 2-phenyl-indole” value in [2] (Compound A, 210° C) is recorded as “clearly superior to 2-phenyl-indole”.

On to `c1ccc(-c2cc3ccccc3[nH]2)cc1` [2-phenyl-indole], for which the Loss of water entry in series [5] was “no loss of water at 100 °C”. Besides, the Residue / decomposition entry in series [6] (under air, 210° C) was “a yellowish residue was, in fact, obtained at 210 °C which constitutes proof of decomposition”. Besides, the Toxic symptoms result in the series with mice [3] is “none”. The “Percentage of sublimated substance” value in [7] was found to be 26.9%.

`CCCCOc1ccc(-c2cc3ccccc3[nH]2)cc1OC` [Stabilizer 25, 2-(3'-methoxy-4'-butyloxy-phenyl)-indole]: in the series with mice [1], the “LD0 (maximal dose which does not provoke any death)” value is > 3000 mg/kg and the Toxic symptoms entry is “none”.

Regarding `CCCCCCCCCCCCc1cc(-c2cc3ccccc3[nH]2)ccc1O` [Stabilizer 19, 2-(3'-dodecyl-4'-hydroxy-phenyl)-indole], in [8], the “Extractibility compared with 2-phenyl-indole” value was “markedly less extractible than 2-phenyl-indole”.

Consider `COc1cc(-c2cc3ccccc3[nH]2)ccc1OCc1ccccc1` [Stabilizer 31, 2-(3'-methoxy-4'-benzyloxy-phenyl)-indole], for which, in the series with mice [1], the “LD0 (maximal dose which does not provoke any death)” value is > 500 mg/kg and the Toxic symptoms entry is listed as “none”.

In the case of `COc1cc(-c2cc3ccccc3[nH]2)ccc1OC(C)C` [Stabilizer 27, 2-(3'-methoxy-4'-isopropyloxy-phenyl)-indole], in the series with mice [1], the “LD0 (maximal dose which does not provoke any death)” value was > 3000 mg/kg and the Toxic symptoms entry was “none”.

Regarding `COc1ccc(-c2cc3ccccc3[nH]2)cc1C(C)C` [Stabilizer 15, 2-(3'-isopropyl-4'-methoxy-phenyl)-indole], the Toxic symptoms result with mice [3] is on record as “none”. In [4], the LD50 is > 3000 mg/kg.

`CCCCCCCCCCCCOc1ccc(-c2cc3ccccc3[nH]2)cc1OC` [Stabilizer 24, 2-(3'-methoxy-4'-dodecyloxy-phenyl)-indole]: the “Extractibility compared with 2-phenyl-indole” value in [8] is reported as “markedly less extractible than 2-phenyl-indole”.

For the compound `COc1c(C)cc(-c2cc3ccccc3[nH]2)cc1C` [Stabilizer 17, 2-(3',5'-dimethyl-4'-methoxy-phenyl)-indole], in the series on mice [1], the “LD0 (maximal dose which does not provoke any death)” value was > 3000 mg/kg and the Toxic symptoms entry is on record as “none”.

`COc1cc(-c2cc3ccccc3[nH]2)ccc1O` [Stabilizer 2, 2-(3'-methoxy-4'-hydroxy-phenyl)-indole]: the Loss of water result in series [5] is given as “no loss of water”. The “Static thermostability compared with 2-phenyl-indole” value in [9] (Compound A) was “superior to 2-phenylindole”; in series [9] (Compound B), “superiority of Stabilizer 2 over 2-phenyl-indole is evident after 21 minutes”; in series [2] (Compound C, 210° C) it was “superior as a stabilizer to 2-phenyl-indole”; in series [2] (Compound D, 185° C, 0, 10 and 20 minutes), “markedly superior to 2-phenyl-indole at 0, 10 and 20 minutes”. Besides, in series [6] (thermogravimetric analysis and differential thermoanalysis), the “Thermostability compared with 2-phenyl-indole” value was “greater thermostability than 2-phenyl-indole”. Further, in [8], the “Extractibility, times less than 2-phenyl-indole” value was “at least 10 times less”. In addition, in series [8], the “Extractibility compared with 2-phenyl-indole” value is on record as “markedly less extractible than 2-phenyl-indole”. The Toxic symptoms result in the series on mice [3] is “none”. In addition, the LD50 in series [4] is > 2000 mg/kg. Besides, the “Sublimation compared with 2-phenyl-indole (ratio)” value in series [7] is recorded as “twenty times less than that of 2-phenyl-indole”. In series [7], the “Percentage of sublimated substance” value is 1.2%.

As for `c1ccc2[nH]c(-c3ccc4c(c3)OCCO4)cc2c1` [Stabilizer 34, 2-(3',4'-ethylenedioxy-phenyl)-indole], in the series with mice [1], the “LD0 (maximal dose which does not provoke any death)” value is reported as > 3000 mg/kg and the Toxic symptoms entry is given as “none”.

Consider `CCCCCCCCCCCCc1cc(-c2cc3ccccc3[nH]2)ccc1OC` [Stabilizer 14, 2-(3'-dodecyl-4'-methoxy-phenyl)-indole], for which the “Extractibility compared with 2-phenyl-indole” value in [8] is “markedly less extractible than 2-phenyl-indole”. For the same compound, the Toxic symptoms result in the series with mice [3] was “none”. Moreover, in series [4], the LD50 was > 3000 mg/kg.

On to `CCCCCCCCCCCCOc1ccc(-c2cc3ccccc3[nH]2)cc1C` [Stabilizer 30, 2-(3'-methyl-4'-dodecyloxy-phenyl)-indole], for which the “Extractibility compared with 2-phenyl-indole” value in [8] is “markedly less extractible than 2-phenyl-indole”.
